Assay results from US9598459B2, “Pharmaceutical compositions and methods” (priority 2015, dated 2017).
Several values for one entry are separate records, joined by “and”; a condition that tells them apart may be missing. Identical values can stand only once.

Assays:
[1] = in vitro; settings: human
[2] = in vitro; settings: African green monkey, CC50
[3] = Cytotoxicity on CCRF-CEM; settings: human, CCRF-CEM cells, CC50, Cytotoxicity control, CCRF-CEM, CellTiter MTS
[4] = Cytotoxicity control on HepG2 (CellTiter MTS); settings: human, HepG2 cells
[5] = test system: Hepatitis C virus (replicon) clone B (genotype 1a); test: HCV genotype 1a HuH-7 clone B subgenomic replicon RNA replication; type: cell-based, human hepatitis C virus; settings: 10 μM
[6] = test system: Norwalk virus (replicon) GT1; test: Norwalk virus replicon (GT1) in HG23, RNA hybridization; type: cell-based, Norwalk virus (human norovirus)
[7] = test system: MNV MNV-1; test: Murine norovirus (MNV-1) antiviral screen in RAW267.4; type: cell-based; settings: MNV-1, RAW267.4, Example 11; for EC50: unit from Conc. Range
[8] = test system: cellular ribosomal RNA (rRNA) synthesis; test: Cellular ribosomal RNA synthesis in HCV replicon cells (TaqMan RT-qPCR); type: cell-based; settings: 10 μM
[9] = in vitro; settings: human; remark: listed apart in the source
[10] = Toxicity in RAW267.4 cells (neutral red); settings: mouse, RAW267.4 cells, CC50, Neutral Red (Toxicity), Example 11
[11] = test system: HIV-1 LAV; test: Inhibition of inducible HIV-1 LAV replication in OM-10.1 (RT values); type: cell-based, human immunodeficiency virus type 1; settings: for RT Values: SAMPLE 1-3, MEAN
[12] = Toxicity in OM-10.1 (Cell Titer 96); settings: human, OM-10.1 cells
[13] = test system: OM-10.1 cells; test: Toxicity in OM-10.1 (Cell Titer 96); settings: for TOXICITY VALUES (Cell Titer 96): SAMPLE 1-3, MEAN
[14] = test system: HG23
[15] = test system: RAW267.4; test: Toxicity in RAW267.4 cells (neutral red); settings: Neutral Red (Toxicity), Example 11
[16] = Norwalk virus, GT1, HG23, Norwalk virus (replicon) GT1, HG23, Table 10
[17] = RAW267.4, Neutral Red (Cytopathology)
[18] = Human immunodeficiency virus 1, OM-10.1

C[C@@H]1C[C@@H]([C@H](O)CC2CC(=O)NC(=O)C2)C(=O)[C@@H](C)C1 [Cycloheximide]
CC50 [1]: 500 nM | CC50 [2]: 200 nM | CC50 [3]: 100 nM | CC50 [4]: 600 nM

C[C@@]1(O)[C@H](O)[C@@H](CO)O[C@H]1n1ccc(N)nc1=O [2′-C-methylcytidine (RS-446), 2′-C-methylcytidine, reference compound]
TaqMan RT-qPCR threshold cycle value difference (ΔCT) of HCV replicon RNA synthesis [5]: 5.72 | Inhibition of HCV replicon RNA syntheses at the fixed concentration of 10 μM of the test compound ([5]; HuH-7 clone B): 98.08% | EC50 [6, 16]: 6900 nM | EC90 [6, 16]: 18000 nM | EC90 ([6]; Norwalk virus, GT1, HG23, RNA Hybridization (Replicon), NV GT1, HG23, Example 10): 19000 nM | EC50 ([6]; Norwalk virus, GT1, HG23, RNA Hybridization (Replicon), NV GT1, HG23, Example 10, unit from Conc. Range): 6400 nM | EC90 [7, 17]: 3100 nM | EC50 [7, 17]: 1000 nM | Inhibition of cellular ribosomal RNA (rRNA) synthesis at the fixed concentration of 10 μM of the test compound [8]: 31.09% | CC50 [9]: > 300000 nM | CC50 [10]: > 30000 nM

O=c1c2ccccc2n2nnc3ccc(NCCCN4CCN(CCCNc5ccc6nnn7c8ccccc8c(=O)c5c67)CC4)c1c32 [Temacrazine (TMZ)]
% VC ([11]; 0.10 nM): 96.8% | RT Values ([11]; 0.10 nM): 30380 cpm and 31745 cpm and 26409 cpm | % VC ([11]; 1.00 nM): 87.9% | RT Values ([11]; 1.00 nM): 32770 cpm and 23041 cpm and 24504 cpm | % VC ([11]; 3.16 nM): 92.4% | RT Values ([11]; 3.16 nM): 30588 cpm and 25259 cpm and 28648 cpm | % VC ([11]; 10.0 nM): 99.6% | RT Values ([11]; 10.0 nM): 27453 cpm and 31623 cpm and 31990 cpm | % VC ([11]; 31.6 nM): 87.0% | RT Values ([11]; 31.6 nM): 25515 cpm and 24677 cpm and 29321 cpm | % VC ([11]; 100 nM): 37.5% | % VC ([11]; 316 nM): 22.7% | RT Values ([11]; 316 nM): 6512 cpm and 5272 cpm and 8986 cpm | % VC ([11]; 1000 nM): 2.0% | EC50 ([11]; Human immunodeficiency virus 1): 70 nM | EC90 ([11]; Human immunodeficiency virus 1): 640 nM | IC50 [11, 18]: 74.8 nM | IC90 [11, 18]: 641 nM | IC 95% ([11]; OM-10.1): 847 nM | Selectivity Index (CC50/EC50) ([11]; OM-10.1, Table 7): >0.13 | CC50 [12]: > 1000 nM | % CC ([13]; 0.10 nM): 108.4% | TOXICITY VALUES (Cell Titer 96) ([13]; 0.10 nM): 0.727 O.D. @ 490/650 nm and 0.895 O.D. @ 490/650 nm and 0.621 O.D. @ 490/650 nm | % CC ([13]; 1.00 nM): 109.3% | TOXICITY VALUES (Cell Titer 96) ([13]; 1.00 nM): 0.781 O.D. @ 490/650 nm and 0.744 O.D. @ 490/650 nm and 0.736 O.D. @ 490/650 nm | % CC ([13]; 3.16 nM): 126.3% | TOXICITY VALUES (Cell Titer 96) ([13]; 3.16 nM): 0.830 O.D. @ 490/650 nm and 0.933 O.D. @ 490/650 nm and 0.849 O.D. @ 490/650 nm | % CC ([13]; 10.0 nM): 137.0% | TOXICITY VALUES (Cell Titer 96) ([13]; 10.0 nM): 0.882 O.D. @ 490/650 nm and 0.999 O.D. @ 490/650 nm and 0.954 O.D. @ 490/650 nm | % CC ([13]; 31.6 nM): 138.1% | TOXICITY VALUES (Cell Titer 96) ([13]; 31.6 nM): 0.967 O.D. @ 490/650 nm and 0.902 O.D. @ 490/650 nm and 0.988 O.D. @ 490/650 nm | % CC ([13]; 100 nM): 138.2% | TOXICITY VALUES (Cell Titer 96) ([13]; 100 nM): 0.917 O.D. @ 490/650 nm and 0.990 O.D. @ 490/650 nm and 0.952 O.D. @ 490/650 nm | % CC ([13]; 316 nM): 136.7% | TOXICITY VALUES (Cell Titer 96) ([13]; 316 nM): 0.977 O.D. @ 490/650 nm and 1.037 O.D. @ 490/650 nm and 0.813 O.D. @ 490/650 nm | % CC ([13]; 1000 nM): 129.9% | TOXICITY VALUES (Cell Titer 96) ([13]; 1000 nM): 0.897 O.D. @ 490/650 nm and 0.910 O.D. @ 490/650 nm and 0.879 O.D. @ 490/650 nm | TC 90% ([13]; OM-10.1): >1000 nM | TC 95% ([13]; OM-10.1): >1000 nM | CC50 ([13]; read-out: TC 50%, OM-10.1): > 1000 nM

CC#CC1(O)CCC2C3CCC4=CC(=NNC(=S)Nc5ccccc5)CCC4=C3C(c3ccc4c(c3)OCO4)CC21C.CC#CC1(O)CCC2C3CCC4=CC(=O)CCC4=C3C(c3ccc4c(c3)OCO4)CC21C (mixture of isomers) [PT156, 1/17(11β,17β)-17-Hydroxy-11-[3,4-(methylenedioxy)phenyl]-17-(1-propyn-1-yl)estra-4,9-dien-3-one (ORG34517)×(2EZ)-2-{(11β,17β)-17-hydroxy-11-[3,4-(methylenedioxy)phenyl]-17-(1-propyn-1-yl)estra-4,9-dien-3-ylidene}-N-phenylhydrazinecarbothioamide [74.1% (E), 25.9% (Z)] 11/17hydrate]
EC90 ([6]; RNA Hybridization (Replicon), NV GT1, HG23, Example 10): > 100000 nM | EC50 ([6]; RNA Hybridization (Replicon), NV GT1, HG23, Example 10, unit from Conc. Range): > 100000 nM | EC90 ([7]; Neutral Red (Cytopathology)): 290 nM | EC50 ([7]; Neutral Red (Cytopathology)): 91 nM | CC50 [14]: > 100000 nM | CC50 [15]: 33000 nM
